Measurements as given in patent US7999119B2, “Compounds having CRTH2 antagonist activity” (Oxagen Limited, priority 2006, dated 2011).
Several values for one entry are separate records, joined by “and”; a condition that tells them apart may be missing. Equal values may be shown once. Read-outs that look alike come from different tables or passages of the source.

Columns and labels:
[1] = tested on: PGD2 induced eosinophil shape change; assay: Human whole blood eosinophil shape change assay; type: cell-based
In short: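 Compound added to human whole blood and incubated 15 min at 37° C., 5% CO2, before cell fixation and red-cell lysis. Leukocytes analysed by FACS, eosinophils gated by autofluorescence, 2000 events per sample, triplicate; read-out is inhibition of PGD2-induced eosinophil shape change.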

[2] = Pharmacokinetics following oral administration in the rat; type: in vivo; conditions: for AUC(0-inf) / Cmax / Tmax / half-life / AUCinf / T½: 3 mg/kg p.o
Method: Investigation of Pharmacokinetics of Compounds of General Formula (I) Following Oral Administration in the Rat
Rats were weighed on the day of dosing.
The test material was prepared as a 0.3 mg/mL suspension in 1% carboxy-methyl-cellulose (CMC).
Three groups of 3 rats were dosed as follows:
Doses were administered as a single oral dose using a gavage tube at a constant dose volume of 10 mL/kg.
At each sampling time point blood samples (approximately 0.3 mL) was taken from a catheter inserted into a lateral tail vein prior to the start of the experiment. The final blood sample (approximately 2 mL) from each animal was taken by cardiac puncture under isoflurane anaesthesia following which the animal was killed by exsanguination. Blood samples were taken into individual heparinised containers. Blood samples were collected at the following times post-dose:
Following collection, the blood samples were centrifuged (approximately 10,000×g, 2 min at 4° C.) and the plasma stored as one aliquot at approximately −20° C. pending analysis of drug concentrations by LC-MS/MS.
The plasma samples were analysed for test material concentrations at BioDynamics using an LC-MS/MS method developed at BioDynamics.

[3] = tested on: DK-PGD2-induced blood eosinophilia; assay: Inhibition of DK-PGD2-induced blood eosinophilia in rats; type: in vivo, rat; conditions: female rats, oral dosing 30 min before 10 μg DK-PGD2 intracardiac; ED50 from dose-response curve; the values are: ED50
Method: Evaluation of Compounds of General Formula (I) as Inhibitors of 13,14-dihydro-15-keto prostaglandin D2 (DK-PGD2)-Induced Blood Eosinophilia in Rats
The test compound was dissolved in DMSO and diluted with water to give a final dosing volume of 2 ml/kg.
Female rats (175-250 g; UH colony) were dosed orally with test compound (or vehicle).
30 min after dosing all animals were anaesthetised with isoflurane.
Following induction of anaesthesia, animals receive an intracardiac injection of 10 μg DK-PGD2 in 0.3 ml heparinised (10 U/ml) saline. Control animals received an injection of 0.3 ml heparinised saline.
60 min after the intracardiac injection, animals were injected with an overdose of pentobarbitone sodium and a blood sample was taken (into heparin) by cardiac puncture while the rat was anaesthetised but not dead.
An aliquot of blood (100 μl) was added to Turk's solution and the total leukocyte count determined with a haemocytometer.
A further aliquot of blood (500 μl) was mixed with an equal volume of 4% Dextran (mw 500,000) and the erythrocytes allowed to settle. A cytospin preparation was made from the resulting leukocyte rich fraction.
Cytospin preparations were fixed with methanol (5 min) and stained with May-Grunwald (5 min) and Giemsa (15 min) stains. Finally cytospins were washed in phosphate buffer (pH6.8) and air dried.
Differential leukocyte counts were obtained from the cytospin preparations.
Blood eosinophil numbers were determined from the total leukocyte count and the percentage eosinophils (differential count).
Because it was impractical to generate sufficient data in any given experiment, data were obtained over a number of replicate experiments. Data from these replicate experiments were pooled, to provide at least 5 animals in each group and a dose-response curve fitted following a significance test (Mann Whitney) to determine whether or not DK-PGD2 caused a significant increase in blood eosinophils (GraphPad, Prism). A difference between groups was taken to be significant when P<0.05. ED50 values were calculated from the dose-response curve.

[4] = Homo sapiens, Eosinophil, 10 nm PGD2-induced eosinophil shape change, human whole blood, read-out: Whole Blood IC50
[5] = Homo sapiens, Eosinophil, Table 12 summary of whole blood eosinophil shape change IC50, read-out: IC50 (μmol)
[6] = male, rat, plasma, po, 3 mg/kg, rat, 3 mg/kg oral, 0.25 h, individual male animals, read-out: Concentration in Blood
[7] = male, rat, plasma, po, 3 mg/kg, rat, 3 mg/kg oral, 0.25 h, mean, read-out: Concentration in Blood, Mean
[8] = male, rat, plasma, po, 3 mg/kg, rat, 3 mg/kg oral, 0.5 h, individual male animals, read-out: Concentration in Blood
[9] = male, rat, plasma, po, 3 mg/kg, rat, 3 mg/kg oral, 0.5 h, mean, read-out: Concentration in Blood, Mean
[10] = male, rat, plasma, po, 3 mg/kg, rat, 3 mg/kg oral, 1 h, individual male animals, read-out: Concentration in Blood
[11] = male, rat, plasma, po, 3 mg/kg, rat, 3 mg/kg oral, 1 h, mean, read-out: Concentration in Blood, Mean
[12] = male, rat, plasma, po, 3 mg/kg, rat, 3 mg/kg oral, 2 h, individual male animals, read-out: Concentration in Blood
[13] = male, rat, plasma, po, 3 mg/kg, rat, 3 mg/kg oral, 2 h, mean, read-out: Concentration in Blood, Mean
[14] = male, rat, plasma, po, 3 mg/kg, rat, 3 mg/kg oral, 4 h, individual male animals, read-out: Concentration in Blood
[15] = male, rat, plasma, po, 3 mg/kg, rat, 3 mg/kg oral, 4 h, mean, read-out: Concentration in Blood, Mean
[16] = male, rat, plasma, po, 3 mg/kg, rat, 3 mg/kg oral, 6 h, mean, read-out: Concentration in Blood, Mean
[17] = male, rat, plasma, po, 3 mg/kg, rat, 3 mg/kg oral, 8 h, mean, read-out: Concentration in Blood, Mean
[18] = male, rat, plasma, po, 3 mg/kg, rat, 3 mg/kg oral, 12 h, mean, read-out: Concentration in Blood, Mean
[19] = male, rat, plasma, po, 3 mg/kg, rat, individual male animals, read-out: AUCinf
[20] = male, rat, plasma, po, 3 mg/kg, rat, individual male animals, read-out: Cmax
[21] = male, rat, plasma, po, 3 mg/kg, rat, individual male animals, read-out: Tmax
[22] = male, rat, plasma, po, 3 mg/kg, rat, mean, summary without unit (Table 12), read-out: AUCinf (mean)
[23] = male, rat, plasma, po, 3 mg/kg, rat, mean, summary without unit (Table 12), read-out: Cmax (mean)
[24] = male, rat, plasma, po, 3 mg/kg, rat, mean, read-out: AUCinf, Mean
[25] = male, rat, plasma, po, 3 mg/kg, rat, mean, read-out: Cmax, Mean
[26] = male, rat, plasma, po, 3 mg/kg, rat, mean, read-out: Tmax, Mean
[27] = male, rat, plasma, po, 3 mg/kg, rat, mean, read-out: T½, Mean (converted)
[28] = rat, 3 mg/kg oral, 0.25 h, individual male animals, 3 mg/kg
[29] = rat, 3 mg/kg oral, 0.5 h, individual male animals, 3 mg/kg
[30] = rat, 3 mg/kg oral, 1 h, individual male animals, 3 mg/kg
[31] = rat, 3 mg/kg oral, 2 h, individual male animals, 3 mg/kg
[32] = rat, 3 mg/kg oral, 4 h, individual male animals, 3 mg/kg
[33] = rat, 3 mg/kg oral, 6 h, individual male animals, 3 mg/kg
[34] = rat, 3 mg/kg oral, 8 h, individual male animals, 3 mg/kg
[35] = rat, 3 mg/kg oral, 12 h, individual male animals, 3 mg/kg
[36] = rat, 3 mg/kg oral, 24 h, individual male animals, 3 mg/kg
[37] = rat, individual male animals, 3 mg/kg

With Cc1c(Cc2ccccc2S(=O)(=O)c2ccc(Cl)cc2)c2cc(F)ccc2n1CC(=O)O [Compound 2, 2-(3-(2-(4-chlorophenylsulfonyl)benzyl)-5-fluoro-2-methyl-1H-indol-1-yl)acetic acid] the IC50 [1, 4] was 2 nM, the IC50 [1, 5] was 2 nM and the IC50 ([1]; Homo sapiens, Eosinophil, whole blood eosinophil shape change IC50 converted to ng/mL, read-out: IC50) was 0.9 ng/mL. It also gave an IC50 ([1]; Homo sapiens, Eosinophil, read-out: IC50 in the whole blood eosinophil shape change assay) of 2 nM, a concentration at 0.25 h [2, 6] of 1.57 µg/mL and a concentration at 0.25 h [2, 7] of 1.49 µg/mL. The concentration at 0.5 h [2, 8] was 2.61 µg/mL, the concentration at 0.5 h [2, 9] was 2.22 µg/mL and the concentration at 1 h [2, 10] was 2.96 µg/mL. For the same molecule, the concentration at 1 h [2, 11] was 2.9 µg/mL, the concentration at 2 h [2, 12] was 2.24 µg/mL and the concentration at 2 h [2, 13] was 2.5 µg/mL. It also gave a concentration at 4 h [2, 14] of 1.13 µg/mL, a concentration at 4 h [2, 15] of 1.37 µg/mL and a concentration at 6 h [2, 16] of 0.64 µg/mL. For the same molecule, the concentration at 8 h [2, 17] was 0.45 µg/mL, the concentration at 12 h [2, 18] was 0.1 µg/mL and the AUC(0-inf) [2, 19] was 13.2 µg·h/mL. It also gave a Cmax [2, 20] of 2.96 µg/mL, a Tmax [2, 21] of 1 h and an AUC(0-inf) [2, 22] of 11.7 µg·h/mL. For the same molecule, the Cmax [2, 23] was 2.95 µg/mL, the AUC(0-inf) [2, 24] was 11.7 µg·h/mL and the Cmax [2, 25] was 2.95 µg/mL. The Tmax [2, 26] was 1.3 h, the half-life [2, 27] was 3.7 h and the “Concentration in Blood” value [2, 28] was 1297.7 ng/mL and 1608.1 ng/mL. For the same molecule, the “Concentration in Blood” value [2, 29] was 1770.2 ng/mL and 2276.6 ng/mL, the “Concentration in Blood” value [2, 30] was 2367.1 ng/mL and 3366.1 ng/mL and the “Concentration in Blood” value [2, 31] was 2536.9 ng/mL and 2717.6 ng/mL. For the same molecule, the “Concentration in Blood” value [2, 32] was 1319.1 ng/mL and 1666.5 ng/mL, the “Concentration in Blood” value [2, 33] was 519.6 ng/mL and 368.3 ng/mL and 1032.6 ng/mL and the “Concentration in Blood” value [2, 34] was 423.7 ng/mL and 186.7 ng/mL and 740.4 ng/mL. The “Concentration in Blood” value [2, 35] was 144.7 ng/mL and 28.2 ng/mL and 128.1 ng/mL, the “Concentration in Blood” value [2, 36] was 60.5 ng/mL and 0.0 ng/mL (2×) and the AUCinf [2, 37] was 10.179 µg·h/mL and 15.677 µg·h/mL. The Cmax [2, 37] was 2.537 µg/mL and 3.366 µg/mL, the Tmax [2, 37] was 2.0 h and the T½ [2, 37] was 6 hours and 2 hours (2×). For the same molecule, the Potency in inhibition of DK-PGD2-induced blood eosinophilia [3] was 10 µg/kg.
For Cc1c(Cc2ccccc2S(=O)(=O)c2ccccc2)c2cc(F)ccc2n1CC(=O)O [Compound 1, 2-(5-fluoro-2-methyl-3-(2-(phenylsulfonyl)benzyl)-1H-indol-1-yl)acetic acid], the IC50 [1, 4] was 5 nM, the IC50 [1, 5] was 5 nM and the “IC50” value ([1]; whole blood eosinophil shape change IC50 converted to ng/mL) was 2.2 ng/mL. The concentration at 0.25 h [2, 6] was 1.16 µg/mL, the concentration at 0.25 h [2, 7] was 1.45 µg/mL and the concentration at 0.5 h [2, 8] was 2.68 µg/mL. It also gave a concentration at 0.5 h [2, 9] of 2.91 µg/mL, a concentration at 1 h [2, 10] of 3.84 µg/mL and a concentration at 1 h [2, 11] of 4 µg/mL. The concentration at 2 h [2, 12] was 4.33 µg/mL, the concentration at 2 h [2, 13] was 3.95 µg/mL and the concentration at 4 h [2, 14] was 1.89 µg/mL. For the same molecule, the concentration at 4 h [2, 15] was 1.54 µg/mL, the concentration at 6 h [2, 16] was 1.05 µg/mL and the concentration at 8 h [2, 17] was 0.734 µg/mL. For the same molecule, the concentration at 12 h ([2]; male, rat, plasma, po, 3 mg/kg, rat, 3 mg/kg oral, 12 h, individual male animals, read-out: Concentration in Blood) was 0.455 µg/mL, the concentration at 12 h [2, 18] was 0.375 µg/mL and the concentration at 24 h ([2]; male, rat, plasma, po, 3 mg/kg, rat, 3 mg/kg oral, 24 h, mean, read-out: Concentration in Blood, Mean) was 0.0474 µg/mL. It also gave an AUC(0-inf) [2, 19] of 23.8 µg·h/mL, a Cmax [2, 20] of 4.33 µg/mL and a Tmax [2, 21] of 2 h. It also gave a half-life ([2]; male, rat, plasma, po, 3 mg/kg, rat, individual male animals, read-out: T½ (converted)) of 4.11 h, an AUC(0-inf) [2, 22] of 19.2 µg·h/mL and a Cmax [2, 23] of 4.16 µg/mL. For the same molecule, the AUC(0-inf) [2, 24] was 19.3 µg·h/mL, the Cmax [2, 25] was 4.16 µg/mL and the Tmax [2, 26] was 1.3 h. The half-life [2, 27] was 3.6 h, the “Fold over IC50 at 12 h” value ([2]; mean blood concentration at 12 h (rat, 3 mg/kg p.o.) divided by whole blood IC50 in ng/ml) was 170 and the “Concentration in Blood” value [2, 28] was 1496.0 ng/mL and 1678.0 ng/mL. For the same molecule, the “Concentration in Blood” value [2, 29] was 2792.4 ng/mL and 3264.7 ng/mL, the “Concentration in Blood” value [2, 30] was 3895.3 ng/mL and 4262.9 ng/mL and the “Concentration in Blood” value [2, 31] was 3454.7 ng/mL and 4051.1 ng/mL. For the same molecule, the “Concentration in Blood” value [2, 32] was 1046.5 ng/mL and 1670.8 ng/mL, the “Concentration in Blood” value [2, 33] was 1423.7 ng/mL and 547.5 ng/mL and 1183.1 ng/mL and the “Concentration in Blood” value [2, 34] was 1099.9 ng/mL and 404.7 ng/mL and 696.2 ng/mL. For the same molecule, the “Concentration in Blood” value [2, 35] was 256.6 ng/mL and 412.8 ng/mL, the “Concentration in Blood” value [2, 36] was 68.5 ng/mL and 10.2 ng/mL and 63.5 ng/mL and the AUCinf [2, 37] was 14.846 µg·h/mL and 21.731 µg·h/mL. The Cmax [2, 37] was 3.895 µg/mL and 4.263 µg/mL, the Tmax [2, 37] was 1 h and the T½ [2, 37] was 3.07 h and 4.59 h. It also gave a Potency in inhibition of DK-PGD2-induced blood eosinophilia [3] of 2.5 µg/kg.
